This note sets out measurements from patent publication US12485123B2, “1H-pyrazolo[4,3-d]pyrimidine compounds as toll-like receptor 7 (TLR7) agonists” (BRISTOL-MYERS SQUIBB COMPANY, priority 2020, dated 2025).

In assay [1] the target is T1, human TLR7 (Homo sapiens, UniProt Q9NYK1).
T1 construct: host or cells: HEK-Blue TLR7 cells (engineered human embryonic kidney cells)
T1 sequence (Q9NYK1 27-1049): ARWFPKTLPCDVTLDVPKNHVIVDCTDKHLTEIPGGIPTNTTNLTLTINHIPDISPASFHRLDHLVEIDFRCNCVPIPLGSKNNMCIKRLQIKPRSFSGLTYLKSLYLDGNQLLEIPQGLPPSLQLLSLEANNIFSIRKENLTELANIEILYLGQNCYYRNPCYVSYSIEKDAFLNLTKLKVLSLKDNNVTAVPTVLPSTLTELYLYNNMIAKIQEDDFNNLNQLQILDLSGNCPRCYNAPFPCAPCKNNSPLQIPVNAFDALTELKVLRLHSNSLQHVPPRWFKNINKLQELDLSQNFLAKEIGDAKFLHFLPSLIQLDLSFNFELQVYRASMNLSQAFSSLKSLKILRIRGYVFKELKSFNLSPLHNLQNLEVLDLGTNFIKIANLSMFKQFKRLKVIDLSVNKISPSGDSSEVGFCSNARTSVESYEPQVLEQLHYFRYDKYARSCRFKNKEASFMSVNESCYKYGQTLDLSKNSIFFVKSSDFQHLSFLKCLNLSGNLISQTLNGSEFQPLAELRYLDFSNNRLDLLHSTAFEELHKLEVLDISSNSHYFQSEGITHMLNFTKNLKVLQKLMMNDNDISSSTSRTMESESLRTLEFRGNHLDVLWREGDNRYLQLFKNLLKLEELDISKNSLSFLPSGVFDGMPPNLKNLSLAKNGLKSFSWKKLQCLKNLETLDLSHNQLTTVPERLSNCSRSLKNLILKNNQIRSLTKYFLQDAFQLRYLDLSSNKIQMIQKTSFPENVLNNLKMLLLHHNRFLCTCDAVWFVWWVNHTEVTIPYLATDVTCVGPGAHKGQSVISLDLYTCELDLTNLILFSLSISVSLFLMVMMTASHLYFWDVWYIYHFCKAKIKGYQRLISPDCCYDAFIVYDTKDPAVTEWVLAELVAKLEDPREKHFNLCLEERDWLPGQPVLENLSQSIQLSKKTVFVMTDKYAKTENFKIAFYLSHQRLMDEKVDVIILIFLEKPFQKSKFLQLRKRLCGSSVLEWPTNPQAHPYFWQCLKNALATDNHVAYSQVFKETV
Briefly: Human TLR7 agonist activity reporter assay (HEK-Blue TLR7 cells, SEAP reporter). To be noted: human TLR7 (hTLR7) reporter assay, SEAP readout after 18 h, average where assay repeated, read-out: TLR7 Agonism EC50. In kind it is cell-based. As for the experimental part:
Human TLR7 Agonist Activity Assay
This procedure describes a method for assaying human TLR7 (hTLR7) agonist activity of the compounds disclosed in this specification.
HEK-Blue™ TLR7 cells were added to each well of a 384-well tissue-culture plate (15,000 cells per well) and incubated 16-18 h at 37° C., 5% CO2. Compounds (100 nl) were dispensed into wells containing the HEK-Blue™ TLR cells and the treated cells were incubated at 37° C., 5% CO2. After 18 h treatment ten microliters of freshly-prepared Quanti-Blue™ reagent (Invivogen) was added to each well, incubated for 30 min (37° C., 5% CO2) and SEAP levels measured using an Envision plate reader (OD=620 nm).
Background: Reporter assays use an easily measured gene product as a stand-in for the process of interest.

For assay [2], the system named is CD69. Briefly: Induction of CD69 in human whole blood. The assay is classed as cell-based. To be noted: 17 hrs incubation, CD69 surface staining, 100% set to 1 uM of resiquimod, average where assay repeated, read-out: hWB CD69 EC50. As for the experimental part:
Induction of Type I Interferon Genes (MX-1) and CD69 in Human Blood
The induction of Type I interferon (IFN) MX-1 genes and the B-cell activation marker CD69 are downstream events that occur upon activation of the TLR7 pathway. The following is a human whole blood assay that measures their induction in response to a TLR7 agonist.
Heparinized human whole blood was harvested from human subjects and treated with test TLR7 agonist compounds at 1 mM. The blood was diluted with RPMI 1640 media and Echo was used to predot 10 nL per well giving a final concentration of 1 uM (10 nL in 10 uL of blood). After mixing on a shaker for 30 sec, the plates were covered and placed in a 37° C. chamber for o/n=17 hrs. Fixing/lysis buffer was prepared (5×→1× in H2O, warm at 37° C.; Cat #BD 558049) and kept the perm buffer (on ice) for later use.
For surface markers staining (CD69): prepared surface Abs: 0.045 ul hCD14-FITC (ThermoFisher Cat #MHCD1401)+0.6 ul hCD19-ef450 (ThermoFisher Cat #48-0198-42)+1.5 ul hCD69-PE (cat #BD555531)+0.855 ul FACS buffer. Added 3 ul/well, spin 1000 rpm for 1 min and mixed on shaker for 30 sec, put on ice for 30 min. Stop stimulation after 30 minutes with 70 uL of prewarmed 1× fix/lysis buffer and use Feliex mate to resuspend (15 times, change tips for each plate) and incubate at 37 C for 10 minutes.
Centrifuge at 2000 rpm for 5 minutes aspirate with HCS plate washer, mix on shaker for 30 sec and then wash with 70 uL in dPBS and pelleted 2×s (2000 rpm for 5 min) and 50 ul wash in FACS buffer pelleted 1×s (2000 rpm for 5 min). Mix on shaker for 30 sec. For Intracellular markers staining (MX-1): Add 50 ul of BD Perm buffer III and mix on shaker for 30 sec. Incubate on ice for 30 minutes (in the dark). Wash with 50 uL of FACS buffer 2× (spin @2300 rpm×5 min after perm) followed by mixing on shaker for 30 sec. Resuspended in 20 ul of FACS buffer containing MX1 antibody ( )(4812)-Alexa 647: Novus Biologicals #NBP2-43704AF647) 20 ul FACS bf+0.8 ul hIgG+0.04 ul MX-1. Spin 1000 rpm for 1 min, mix on shaker for 30 se and the samples were incubated at RT in the dark for 45 minutes followed by washing 2×FACS buffer (spin @2300 rpm×5 min after perm). Resuspend 20 ul (35 uL total per well) of FACS buffer and cover with foil and place in 4° C. to read the following day. Plates were read on iQuePlus. The results were loaded into toolset and […] curves are generated in curve master. The y-axis 100% is set to 1 uM of resiquimod.

Molecules are shown by their SMILES.

As to `CCC[C@@H](CCO)Nc1nc(N)nc2cnn(Cc3ccc(C4CCN(C(C)C)CC4)c4cccnc34)c12` [Compound 143, (3S)-3-{[5-amino-1-({5-[1-(propan-2-yl)piperidin-4-yl]quinolin-8-yl}methyl)-1H-pyrazolo[4,3-d]pyrimidin-7-yl]amino}hexan-1-ol], the EC50 in assay [1] was found to be 6.1 nM.

Consider `CCC[C@@H](CCO)Nc1nc(N)nc2cnn(Cc3ccc(C(=O)N4CC(OC)C4)c4cccnc34)c12` [Compound 108, (3S)-3-[(5-amino-1-{[5-(3-methoxyazetidine-1-carbonyl)quinolin-8-yl]methyl}-1H-pyrazolo[4,3-d]pyrimidin-7-yl)amino]hexan-1-ol], for which the EC50 is 67.6 nM in assay [1] and 110 nM in assay [2]. For `Nc1nc(NCC2CC3(CC3)C2)c2c(cnn2Cc2ccc(C(=O)N3CCN(CCO)CC3)c3cccnc23)n1` [Compound 115, 2-{4-[8-({5-amino-7-[({spiro[2.3]hexan-5-yl}methyl)amino]-1H-pyrazolo[4,3-d]pyrimidin-1-yl}methyl)quinoline-5-carbonyl]piperazin-1-yl}ethan-1-ol], the EC50 in assay [1] was 468 nM; in assay [2], 756 nM. `CCC[C@@H](CCO)Nc1nc(N)nc2cnn(Cc3ccc(C(=O)N4CC5(CN(C)C5)C4)c4cccnc34)c12` [Compound 130, (3S)-3-({5-amino-1-[(5-{6-methyl-2,6-diazaspiro[3.3]heptane-2-carbonyl}quinolin-8-yl)methyl]-1H-pyrazolo[4,3-d]pyrimidin-7-yl}amino)hexan-1-ol]: the EC50 in assay [2] worked out at 49.7 nM. For the compound `Cc1cc(CNc2nc(N)nc3cnn(Cc4ccc(C(=O)N5CC6(CN(C)C6)C5)c5cccnc45)c23)no1` [Compound 138, N7-[(5-methyl-1,2-oxazol-3-yl)methyl]-1-[(5-{6-methyl-2,6-diazaspiro[3.3]heptane-2-carbonyl}quinolin-8-yl)methyl]-1H-pyrazolo[4,3-d]pyrimidine-5,7-diamine], the EC50 in assay [1] was found to be 275 nM; in assay [2], 41.7 nM.

With `CCC[C@@H](CCO)Nc1nc(N)nc2cnn(Cc3ccc(C(=O)NCCCCO)c4cccnc34)c12` [Compound 136, 8-[(5-amino-7-{[(3S)-1-hydroxyhexan-3-yl]amino}-1H-pyrazolo[4,3-d]pyrimidin-1-yl)methyl]-N-(4-hydroxybutyl)quinoline-5-carboxamide], the EC50 in assay [1] was 231 nM; in assay [2], 418 nM. `CCCCNc1nc(N)nc2cnn(Cc3ccc(CNC4CCOCC4)c4cccnc34)c12` [Compound 109, N7-butyl-1-[(5-{[(oxan-4-yl)amino]methyl}quinolin-8-yl)methyl]-1H-pyrazolo[4,3-d]pyrimidine-5,7-diamine]: the EC50 in assay [1] came to 55.2 nM; in assay [2], 41.5 nM.

As to `CCC[C@@H](CCO)Nc1nc(N)nc2cnn(Cc3ccc(CN4CC(O)C4)c4cccnc34)c12` [Compound 105, 1-({8-[(5-amino-7-{[(3S)-1-hydroxyhexan-3-yl]amino}-1H-pyrazolo[4,3-d]pyrimidin-1-yl)methyl]quinolin-5-yl}methyl)azetidin-3-ol], the EC50 in assay [1] came to 49.4 nM; in assay [2], 13.8 nM.

Take `CCC[C@@H](CCO)Nc1nc(N)nc2cnn(Cc3ccc(C(=O)NC4CCOCC4)c4cccnc34)c12` [Compound 114, 8-[(5-amino-7-{[(3S)-1-hydroxyhexan-3-yl]amino}-1H-pyrazolo[4,3-d]pyrimidin-1-yl)methyl]-N-(oxan-4-yl)quinoline-5-carboxamide]: the figures for the EC50 in assay [1] and in assay [2] were 75.2 nM and 369 nM, respectively. For `CCCCNc1nc(N)nc2cnn(Cc3ccc(CN4CCOCC4)c4cccnc34)c12` [Compound 107, N7-butyl-1-({5-[(morpholin-4-yl)methyl]quinolin-8-yl}methyl)-1H-pyrazolo[4,3-d]pyrimidine-5,7-diamine] the same measures were 156 nM and 321 nM.

For the compound `CCC[C@@H](CCO)Nc1nc(N)nc2cnn(Cc3ccc(C(=O)N4CCOCC4)c4cccnc34)c12` [Compound 113, (3S)-3-[(5-amino-1-{[5-(morpholine-4-carbonyl)quinolin-8-yl]methyl}-1H-pyrazolo[4,3-d]pyrimidin-7-yl)amino]hexan-1-ol], the EC50 in assay [1] turned out to be 186 nM; in assay [2], 132 nM. Turning to `CCC[C@@H](CCO)Nc1nc(N)nc2cnn(Cc3ccc(C(=O)N4CCN(CCOC)CC4)c4cccnc34)c12` [Compound 131, (3S)-3-{[5-amino-1-({5-[4-(2-methoxyethyl)piperazine-1-carbonyl]quinolin-8-yl}methyl)-1H-pyrazolo[4,3-d]pyrimidin-7-yl]amino}hexan-1-ol], the EC50 in assay [2] came to 91.9 nM. For `CCC[C@@H](CCO)Nc1nc(N)nc2cnn(Cc3ccc(C(=O)N(C)C4CCOCC4)c4cccnc34)c12` [Compound 129, 8-[(5-amino-7-{[(3S)-1-hydroxyhexan-3-yl]amino}-1H-pyrazolo[4,3-d]pyrimidin-1-yl)methyl]-N-methyl-N-(oxan-4-yl)quinoline-5-carboxamide], the EC50 in assay [2] turned out to be 83.3 nM. With `CCC[C@@H](CCO)Nc1nc(N)nc2cnn(Cc3ccc(C4CCN(C5CCOCC5)CC4)c4cccnc34)c12` [Compound 142, (3S)-3-{[5-amino-1-({5-[1-(oxan-4-yl)piperidin-4-yl]quinolin-8-yl}methyl)-1H-pyrazolo[4,3-d]pyrimidin-7-yl]amino}hexan-1-ol], in assay [1], the EC50 came out at 8.6 nM. `CCC[C@@H](CCO)Nc1nc(N)nc2cnn(Cc3ccc(C(=O)N4CC(CCO)C4)c4cccnc34)c12` [Compound 132, (3S)-3-{[5-amino-1-({5-[3-(2-hydroxyethyl)azetidine-1-carbonyl]quinolin-8-yl}methyl)-1H-pyrazolo[4,3-d]pyrimidin-7-yl]amino}hexan-1-ol]: the EC50 in assay [2] was 102 nM.

Regarding `CCC[C@@H](CCO)Nc1nc(N)nc2cnn(Cc3ccc(CNC4CCOCC4)c4cccnc34)c12` [Compound 104, (3S)-3-({5-amino-1-[(5-{[(oxan-4-yl)amino]methyl}quinolin-8-yl)methyl]-1H-pyrazolo[4,3-d]pyrimidin-7-yl}amino)hexan-1-ol], the concentration giving a half-maximal response (EC50) in assay [2] came out at 13.4 nM.

A word on the EC50: it is the concentration that produces a half-maximal response.
